Laboratory results as given in patent US20220340976A1, “RAPID PREDICTION OF DRUG RESPONSIVENESS” (THE BROAD INSTITUTE, INC., priority 2019, published 2022).
“Also recorded” adds a separate entry of the source.

What was measured:
[1] = tested on: pools of cancer cell lines; experiment: Relative cell line abundance estimated from pooled scRNA-seq; assay type: cell-based, human; conditions: particularly 24 hours post-treatment
Description: Estimates of the effects of perturbations on relative cell line abundance were obtained by counting the number of (QC-passing) single cells from each cell line in each treatment condition, adding a ‘pseudo-count’ of 1, and normalizing counts across cell lines per condition. These relative abundance estimates were averaged across samples for each treatment condition to compute the log2-fold-change difference between drug-treated and control relative cell line abundances.
For selective compounds, cell cycle effects were also well-correlated with measured viability effects, such that drugs typically had larger effects in more sensitive cell lines (FIG. 18).

[2] = tested on: pools of well-characterized cancer cell lines; experiment: MIX-Seq: scRNA-seq transcriptional response profiling of drug-treated cell line pools; assay type: cell-based, human
Experimental: Cell line pools were made in sets of 25 cell lines. These 25 cell line pools were chosen based on doubling time and were grown in RPMI in the absence of phenol red and with 10% FBS. Cell lines were then washed with 10 mLs of PBS, and trypsinized with 1 mL trypsin which was then removed. Ten mLs of RPMI media were added to the cells post trypsinization and resuspended. Cells were then counted by a Nexcelom cellometer using 10 uL of cell suspension and 10 ul of Trypan blue. Equal numbers of cells per cell line were mixed together and spun down at 1,250 RPM for 5 minutes. Media was aspirated and the cells were resuspended in Sigma Cell Freezing media and frozen in 1 mL aliquots. This process was repeated for all of the 25 cell line pools. For MIX-Seq experiments involving larger pools, multiple 25 cell line pools were thawed in RPMI with 10% FBS, spun down and resuspended in 5 mLs of RPMI media. Cells were then counted and equal numbers were combined together on the day of plating to form larger pools of up to ˜100 cell lines.
For drug treatment experiments, cell line pools were cultured in RPMI containing 10% fetal bovine serum, in the absence of phenol red and penicillin/streptomycin. Cell line pools were validated as Mycoplasma free prior to initiating the experiment. Cell line pools were plated at 200,000 cells per well in 6 well plates containing 2 mL of RPMI culture media described above. […] Cell pools were plated ˜16-20 hours prior to drug treatment. Cells were treated with the described drugs or vehicle (DMSO) with a 0.2% final media DMSO concentration.
Generally cells were harvested after drug treatment using standard cell culture methods. Briefly, after drug treatment cells that were in suspension (presumably containing dead cells from drug treatment) were collected and reserved for addition to the adherent cell fraction. Adherent cells were washed once with 1×PBS, trypsinized in 1 mL trypsin, incubated for 3-7 minutes at 37 C, and then trypsin inactivated with 1 mL growth media. For Cell Hashing, cells were treated with TrypLE Express (ThermoFisher) instead of trypsin to reduce the amount of cell surface proteins digested that may affect the binding of Cell Hashing antibodies.
After trypsinization, adherent and suspension cells were combined for each treatment, pelleted, and resuspended in Cell Capture Buffer (lx PBS with 0.04% BSA). Cells were counted (including trypan blue non-viable cells) and resuspended at a concentration of 1,000 cells per microliter for standard loading on the Chromium Controller (10× Genomics), or at 1,500 cells per microliter for “super loaded” samples. Up to 40,000 cells were loaded per 10× channel for “super loaded” samples, with expected recovery of up to 20,000 cells per channel. Cell suspensions were captured on a 10× Chromium controller using Single Cell 3′ reagent chemistries (either version 2 or and version 3 reagents) FIG. 26.
Sequencing data were processed using 10× Cell Ranger software, run using the Cumulus cloud-based analysis framework (Li et al. 2019). Initial experiments were done with 10× Single Cell 3′ v2 chemistry, and were processed using version 2 of the Cell Ranger software. In later experiments v3 chemistry and the corresponding version 3 of Cell Ranger were used. Reads were aligned to the hg19 reference genome.
To estimate the average transcriptional response of each cell line to a perturbation, the data were first ‘sum-collapsed’—summing read counts across cells for each cell line and treatment condition—to produce a bulk RNA-seq style read counts profile for each sample (Crowell et al. 2019; Lun & Marioni 2017). […]

cancer cell lines = conditions: GDSC and PRISM drug sensitivity data; cited from earlier work
[3] = tested on: pools of cancer cell lines; experiment: Single-cell heterogeneity analysis of drug responses (clustering of scRNA-seq profiles); assay type: cell-based, human; conditions: lung cell line IALM, 24 hours post-treatment
Description: Specifically, the edgeR quasi-likelihood approach was used (Lun et al. 2016), following the pipeline in Soneson et al. 2018, with the cell detection rate (the fraction of genes with non-zero reads detected) included as a covariate.
To identify subpopulations of bortezomib treated cells (FIGS. 4D-4F), Seurat's default methods were used to normalize the data, detect variable genes, and compute PCs (using 5000 most variable genes, and 50 PCs). Seurat's default clustering methods were then used to cluster cells for each cell line (using the 20 nearest neighbors, and a clustering resolution parameter of 0.25).
To identify sub-populations of cells from a given cell line in a consistent fashion across baseline and treatment conditions (for analysis and presentation in FIG. 19), the following procedure was employed. After restricting to cells from the target cell line, the scTransform method (Hafemeiester et al. 2019) was used to normalize the data, identify 5,000 variable genes, and regress out experimental condition as a covariate to align clusters across conditions. Seurat's default clustering methods (using the top 10 PCs, 20 nearest neighbors, and a clustering resolution parameter of 0.25) were then used to identify clusters jointly across treated and control cells.

pool of 24 cell lines = experiment: Trametinib time course: MIX-Seq combined with Cell Hashing; assay type: cell-based, human
Experimental: For the trametinib time course experiment, cells were treated with trametinib with a staggered dosing schedule so all timepoints could be collected simultaneously. Cells were plated 19 hours prior to the first drug treatment, corresponding to the 48 hour time point. Cells were harvested for 10× capture ˜67 hours after initial seeding.
Cell Hashing (Stoeckius et al., 2018) was performed using the cell harvest method described above with the following changes. All steps were performed on ice. Harvested cells were resuspended in Cell Hashing Staining Buffer (lx PBS with 2% BSA and 0.02% Tween) prior to cell counting. Samples were counted in duplicate with two technical replicates by Countess (Life Technologies) to estimate total cell number. Up to 1,000,000 cells (range 3e5-1e6 cells) were resuspended in 100 microliters of Cell Hashing Staining Buffer. Cells were blocked with 10 microliters of Human TruStain FcX blocking solution (BioLegend) for 10 minutes at 4° C. 100 microliter cell suspensions in Cell Hashing Staining Buffer were then incubated with 2 μL of the appropriate BioLegend TotalSeq™-A Hashing antibody A Hashing antibody (a 1:50 dilution, using a total of 1 μg of antibody per cell suspension). TotalSeq™-A anti-human Hashtag antibodies #4-10 and 12-15 (product codes: 394607, 394609, 394611, 394613, 394615, 394617, 394619, 394623, 394625, 394627, 394629) were used. Cells were washed three times with 0.5 mL of Cell Hashing Staining Buffer and filtered through low volume 40 μm cell strainers (Flowmi). All cell suspensions were recounted to achieve a uniform concentration of 1,500 cells per microliter before pooling for 10× capture. A detailed general protocol is available (www.protocols.io/private/4AC0F6594480B498D8B60EAF6F518E66).
Classification of single-cell treatment conditions, as well as doublet classification, from the hashtag read counts data were performed using DemuxEM (Gaublomme et al. 2019), with default parameters.
The same approach described above was used to estimate the viability-related and viability-independent components of the response at each time point post-trametinib treatment. As substantial transcriptional changes across time points after DMSO-treatment were not observed […], data across DMSO conditions was pooled for analysis.
Leveraging this, responses of a pool of 24 cell lines to trametinib were measured along five time points, ranging from 3 to 48 hours post-treatment, using Cell Hashing to multiplex treatment conditions (FIG. 5A). As controls, DMSO-treated samples were included at each of the 5 time points, in addition to untreated samples, for a total of 11 conditions. Hashtag reads provided robust labeling of treatment conditions, with good tagging efficiency across all cell lines (FIGS. 21A and 21B). Since substantial differences in DMSO-treated cells were not observed across time points (FIG. 22), they were pooled together for subsequent analysis, yielding a total of 13,713 clearly-tagged single cells across all treatment conditions and cell lines.

[4] = 99 cell-line pool, 24 hours post-treatment
[5] = integrating across all cell lines

| SMILES | drug-induced change in relative cell abundance versus measured drug sensitivity [1] | robust transcriptional response signature ([2]; 6 and/or 24 hours post-treatment) | long-term viability response across cell lines (cancer cell lines) | viability-independent response component (β0) [2, 4] | viability-related response component (β1) [2, 4] | difference in response between two baseline subpopulations [3] | EGR1 expression (pool of 24 cell lines; 3 hours after treatment, sensitive cell line RCM1 and insensitive line TEN) | time at which viability-independent down-regulation of the KRAS signaling pathway emerged (pool of 24 cell lines; [5]) [hours after treatment] | time at which viability-related down-regulation of cell cycle genes started (pool of 24 cell lines; [5]) [hours after treatment] | time of maximal down-regulation of viability-independent genes such as EGR1 and DUSP6 (pool of 24 cell lines; [5]) [hours post-treatment] | MCMI expression (pool of 24 cell lines; sensitive line RCM1 vs insensitive line TEN, time course 3 to 48 hours) | time of selective down-regulation of GINS2, E2F1 and MCM4 in sensitive cell lines (pool of 24 cell lines; viability-related response) |
| --- | --- | --- | --- | --- | --- | --- | --- | --- | --- | --- | --- | --- |
| Cc1c2c(nn1C)CSCc1cc(n(C)n1)CSc1cc(c3ccccc3c1)OCCCc1c(C(=O)O)n(C)c3c-2c(Cl)ccc13 [AZD5591] | this relationship was observed most strongly | did not produce strong and/or selective transcriptional responses; also recorded: did not produce robust transcriptional response signatures; also recorded: a robust transcriptional response to the drug was not observed | strong selective viability responses |  |  |  |  |  |  |  |  |  |
| CC(=O)Nc1cccc(-n2c(=O)n(C3CC3)c(=O)c3c(Nc4ccc(I)cc4F)n(C)c(=O)c(C)c32)c1 [trametinib] |  |  |  | strong down-regulation of MAPK signaling genes, including EGR1, ETV4/5, DUSP4/5/6, and SPRY2/4, KRAS signaling pathways, and TNF-alpha signaling, as well as up-regulation of the interferon response | strong down-regulation of cell-cycle processes | subtle but significant differences | dramatically down-regulated | 3 | 24 | 3 | selectively down-regulated only in the sensitive line RCM1, and only after 12-24 hours post-treatment | 12-24 hours post-treatment |
